Experimental data taken from patent US7763615B2, “Ecteinascidin analogs for use as antitumour agents” (priority 2001, dated 2010).
Read-outs that look alike come from different tables or passages of the source.

Experiments:
[1] = system: NRK-52E, normal rat kidney cells; conditions: 24 h
IGROV = test: cells; assay type: cell-based
Description: (§1) The finality of these assays is to interrupt the growth of a “in vitro” tumor cell culture by means of a continued exhibition of the cells to the sample to be testing.
(§2) A colorimetric type of assay, using sulphorhodamine B (SRB) reaction has been adapted for a quantitative measurement of cell growth and viability [following the technique described by Philip Skehan, et al. (1990), New colorimetric cytotoxicity assay for anticancer drug screening, J. Natl. Cancer Inst., 82:1107-1112]
(§3) This form of the assay employs 96 well cell culture microplates of 9 mm diameter (Faircloth, 1988; Mosmann, 1983). Most of the cell lines are obtained from American Type Culture Collection (ATCC) derived from different human cancer types.
(§4) Cells are maintained in RPMI 1640 10% FBS, supplemented with 0.1 g/l penicillin and 0.1 g/l streptomycin sulphate and then incubated at 37° C., 5% CO2 and 98% humidity. For the experiments, cells were harvested from subconfluent cultures using trypsin and resuspended in fresh medium before plating.
(§5) Cells are seeded in 96 well microtiter plates, at 5×10^3 cells per well in aliquots of 195 μl medium, and they are allowed to attach to the plate surface by growing in drug free medium for 18 hours. Afterward, samples are added in aliquots of 5 μl in a ranging from 10 to 10^−8 μg/ml, dissolved in DMSO/EtOH/PBS (0.5:0.5:99). After 48 hours exposure, the antitumor effect are measured by the SRB methodology: cells are fixed by adding 50 μl of cold 50% (wt/vol) trichloroacetic acid (TCA) and incubating for 60 minutes at 4° C. Plates are washed with deionized water and dried. One hundred μl of SRB solution (0.4% wt/vol in 1% acetic acid) is added to each microtiter well and incubated for 10 minutes at room temperature. Unbound SRB is removed by washing with 1% acetic acid. Plates are air dried and bound stain is solubilized with Tris buffer. Optical densities are read on a automated spectrophotometric plate reader at a single wavelength of 490 nm.
(§6) The values for mean+/− SD of data from triplicate wells are calculated. Some parameters for cellular responses can be calculated: GI=growth inhibition, TGI=total growth inhibition (cytostatic effect) and LC=cell killing (cytotoxic effect).

LNCAP = test: cells; assay type: cell-based; conditions: LNCAP, 48 hours exposure, SRB
Description: as §1, §2, §3, §4, §5, §6

IGROV-ET = test: cells; assay type: cell-based; conditions: IGROV-ET, 48 hours exposure, SRB
Description: as §1, §2, §3, §4, §5, §6

A549 = test: cells; assay type: cell-based; conditions: for GI50: read-out: GI50
Description: as §1, §2, §3, §4, §5, §6

MEL-28 = test: cells; assay type: cell-based; conditions: for CC50: read-out: LC50
Description: as §1, §2, §3, §4, §5, §6

PANC-1 = test: cells; assay type: cell-based; conditions: PANC-1, 48 hours exposure, SRB
Description: as §1, §2, §3, §4, §5, §6

LOVO-DOX = test: cells; assay type: cell-based; conditions: LOVO-DOX, 48 hours exposure, SRB
Description: as §1, §2, §3, §4, §5, §6

LOVO = test: cells; assay type: cell-based; conditions: LOVO, 48 hours exposure, SRB
Description: as §1, §2, §3, §4, §5, §6

DU145 = test: cells; assay type: cell-based; conditions: for CC50: read-out: LC50
Description: as §1, §2, §3, §4, §5, §6

HT29 = test: cells; assay type: cell-based
Description: as §1, §2, §3, §4, §5, §6

SK-BR3 = test: cells; assay type: cell-based; conditions: SK-BR3, 48 hours exposure, SRB
Description: as §1, §2, §3, §4, §5, §6

K562 = test: cells; assay type: cell-based; conditions: K562, 48 hours exposure, SRB
Description: as §1, §2, §3, §4, §5, §6

[2] = system: L8, normal rat skeletal muscle cells; conditions: 24 h
[3] = system: AML-12, normal mouse liver cells; conditions: 24 h
[4] = system: FDC-P1, normal mouse myelogeous stem cells; conditions: 24 h
H-MEC-1 = test: Inhibition of cells growth by colorimetric assay (SRB), H-MEC-1; assay type: cell-based; conditions: H-MEC-1, 48 hours exposure, SRB
Description: as §1, §2, §3, §4, §5, §6

SK-OV3 = test: Inhibition of cells growth by colorimetric assay (SRB), SK-OV3; assay type: cell-based; conditions: SK-OV3, 48 hours exposure, SRB
Description: as §1, §2, §3, §4, §5, §6

MCF = test: cells; assay type: cell-based; conditions: Homo sapiens
Description: as §1, §2, §3, §4, §5, §6

MB231 = test: cells; assay type: cell-based; conditions: Homo sapiens
Description: as §1, §2, §3, §4, §5, §6

A498 = test: cells; assay type: cell-based; conditions: Homo sapiens
Description: as §1, §2, §3, §4, §5, §6

SW-620 = test: cells; assay type: cell-based; conditions: Homo sapiens
Description: as §1, §2, §3, §4, §5, §6

[5] = Homo sapiens, SK-MEL-28, 48 h, MEL-28, 48 hours exposure, SRB
[6] = Homo sapiens, DU-145, 48 h, DU145, 48 hours exposure, SRB
[7] = Homo sapiens, HT-29, 48 h, HT29, 48 hours exposure, SRB

`COc1c(C)cc2c(c1O)[C@@H]1C3[C@@H]4SC[C@]5(C(=O)COC[C@@H](c6c7c(c(C)c(OC(C)=O)c64)OCO7)N3[C@@H](O)[C@H](C2)N1C)c1[nH]c2ccccc2c1CCN5C` (stereo partly shown) [Compound 40] was tested, and the Kidney [1] was 2.95E−08, the GI50 (IGROV; 48 hours exposure, SRB) was 1.96 nM and the TGI (IGROV; 48 hours exposure, SRB) was 4.17E−09 Molar. The CC50 (IGROV; read-out: LC50, 48 hours exposure, SRB) was 8.86 nM, the GI50 (LNCAP) was 1.02 nM and the TGI (LNCAP) was 2.48E−09 Molar. It also gave a CC50 (LNCAP; read-out: LC50) of 5.88 nM, a GI50 (IGROV-ET) of 2.42 nM and a TGI (IGROV-ET) of 8.66E−09 Molar. For the same compound, the CC50 (IGROV-ET; read-out: LC50) was 4800 nM, the TGI (A549; A549, 48 hours exposure, SRB) was 4.11E−09 Molar and the GI50 (A549; A549, 48 hours exposure, SRB) was 2.41 nM. For the same compound, the CC50 (A549; read-out: LC50, A549, 48 hours exposure, SRB) was 7.02 nM, the GI50 (MEL-28; MEL-28, 48 hours exposure, SRB) was 19.6 nM and the TGI (MEL-28; MEL-28, 48 hours exposure, SRB) was 4.70E−08 Molar. The CC50 (MEL-28; MEL-28, 48 hours exposure, SRB) was 112 nM, the GI50 (PANC-1) was 2.82 nM and the TGI (PANC-1) was 7.17E−09 Molar. The CC50 (PANC-1; read-out: LC50) was 128 nM, the GI50 (LOVO-DOX) was 30.4 nM and the TGI (LOVO-DOX) was 9.12E−08 Molar. For the same compound, the CC50 (LOVO-DOX; read-out: LC50) was 551 nM, the GI50 (LOVO) was 2.51 nM and the TGI (LOVO) was 5.98E−09 Molar. The CC50 (LOVO; read-out: LC50) was 23.8 nM, the GI50 (DU145; DU145, 48 hours exposure, SRB) was 2.35 nM and the TGI (DU145; DU145, 48 hours exposure, SRB) was 6.41E−09 Molar. For the same compound, the CC50 (DU145; DU145, 48 hours exposure, SRB) was 2450 nM, the GI50 (HT29; HT29, 48 hours exposure, SRB) was 3.26 nM and the TGI (HT29; HT29, 48 hours exposure, SRB) was 1.06E−08 Molar. It also gave a CC50 (HT29; read-out: LC50, HT29, 48 hours exposure, SRB) of 13000 nM, a GI50 (SK-BR3) of 2.56 nM and a TGI (SK-BR3) of 6.50E−09 Molar. For the same compound, the CC50 (SK-BR3; read-out: LC50) was 28 nM, the GI50 (K562) was 0.843 nM and the TGI (K562) was 6.87E−09 Molar. The CC50 (K562; read-out: LC50) was 80 nM, the Skeletal [2] was 2.11E−07 and the Liver [3] was 3.86E−08. For the same compound, the Myelo [4] was 4.08E−08, the GI50 (H-MEC-1) was 2.45 nM and the TGI (H-MEC-1) was 5.31E−09 Molar. It also gave a CC50 (H-MEC-1; read-out: LC50) of 11.5 nM, a GI50 (SK-OV3) of 2.9 nM and a TGI (SK-OV3) of 6.28E−09 Molar. It also gave a CC50 (SK-OV3; read-out: LC50) of 13 nM.
In the case of `COc1c(C)cc2c(c1O)[C@@H]1C3[C@@H]4SC[C@]5(NCCc6c5[nH]c5ccccc65)C(=O)COC[C@@H](c5c6c(c(C)c(OC(=O)C(F)(F)C(F)(F)C(F)(F)F)c54)OCO6)N3[C@@H](O)[C@H](C2)N1C` (stereo partly shown) [Compound 62], the CC50 (MCF; 48 h, read-out: LC50) is reported as 110 nM, the GI50 (MCF; MCF, 48 hours exposure, SRB) is reported as 2.2 nM and the IC (TGI) (MCF; MCF, 48 hours exposure, SRB, read-out: TGI) is reported as 9.9 nM. It also gave a GI50 (A549; Homo sapiens, A549, 48 h, A549, 48 hours exposure, SRB) of 8.8 nM, an IC (TGI) (A549; Homo sapiens, A549, 48 h, A549, 48 hours exposure, SRB, read-out: TGI) of 33 nM and a CC50 (A549; Homo sapiens, A549, 48 h, read-out: LC50, A549, 48 hours exposure, SRB) of 77 nM. It also gave a GI50 (MEL-28; [5]) of 3.3 nM, an IC (TGI) (MEL-28; [5]) of 1.1 nM and a CC50 (MEL-28; Homo sapiens, SK-MEL-28, 48 h) of 33 nM. The CC50 (MB231; 48 h, read-out: LC50) was 33 nM, the GI50 (MB231; MB231, 48 hours exposure, SRB) was 1.1 nM and the IC (TGI) (MB231; MB231, 48 hours exposure, SRB, read-out: TGI) was 5.5 nM. The CC50 (A498; A498, 48 h, read-out: LC50) was 11 nM, the GI50 (A498; A498, 48 hours exposure, SRB) was 3.3 nM and the IC (TGI) (A498; A498, 48 hours exposure, SRB) was 4.4 nM. The GI50 (DU145; [6]) was 2.2 nM, the IC (TGI) (DU145; [6]) was 4.4 nM and the CC50 (DU145; Homo sapiens, DU-145, 48 h) was 9.9 nM. The GI50 (HT29; [7]) was 11 nM, the IC (TGI) (HT29; [7]) was 66 nM and the CC50 (HT29; Homo sapiens, HT-29, 48 h, read-out: LC50, HT29, 48 hours exposure, SRB) was 99 nM. For the same compound, the CC50 (SW-620; SW-620, 48 h, read-out: LC50) was 110 nM, the IC (TGI) (SW-620; SW-620, 48 hours exposure, SRB) was 55 nM and the GI50 (SW-620; SW-620, 48 hours exposure, SRB, read-out: GI50) was 22 nM.
